Key:
[1] = Metabolic stability in golden Syrian hamster liver microsomes assessed as drug metabolism at 0.5 uM incubated for 30 mins in presence of NADPH; assay type: ADME, Mesocricetus auratus; details: read-out: Drug metabolism
[2] = Metabolic stability in CD1 mouse liver microsomes assessed as drug metabolism at 0.5 uM incubated for 30 mins in presence of NADPH; assay type: ADME; details: read-out: Drug metabolism
[3] = Clearance in Swiss Albino mouse at 1 mg/kg, iv by LC-MS/MS method; assay type: ADME, organism-based; details: in vivo, read-out: CLH
[4] = AUClast in Swiss Albino mouse at 1 mg/kg, iv by LC-MS/MS method; assay type: ADME, organism-based; parameters: dose 1 mg/kg, route intravenous, time 0 - last; details: in vivo
[5] = Volume of distribution at steady state in Swiss Albino mouse at 1 mg/kg, iv by LC-MS/MS method; assay type: ADME, organism-based; details: in vivo, read-out: Vdss
[6] = AUC (infinity) in Swiss Albino mouse at 25 mg/kg, po by LC-MS/MS method; assay type: ADME, organism-based; parameters: dose 25 mg/kg, time infinity, route oral; details: in vivo
[7] = Cmax in Swiss Albino mouse at 1 mg/kg, iv by LC-MS/MS method; assay type: ADME, organism-based; parameters: dose 1 mg/kg, route intravenous; details: in vivo
[8] = AUC (infinity) in Swiss Albino mouse at 1 mg/kg, iv by LC-MS/MS method; assay type: ADME, organism-based; parameters: dose 1 mg/kg, time infinity, route intravenous; details: in vivo
[9] = Cmax in Swiss Albino mouse at 25 mg/kg, po by LC-MS/MS method; assay type: ADME, organism-based; parameters: dose 25 mg/kg, route oral; details: in vivo
[10] = Oral bioavailability in Swiss Albino mouse at 1 mg/kg by LC-MS/MS method; assay type: ADME, organism-based; details: in vivo
[11] = Tmax in Swiss Albino mouse at 25 mg/kg, po by LC-MS/MS method; assay type: ADME, organism-based; details: in vivo
[12] = Terminal half-life in Swiss Albino mouse at 1 mg/kg, iv by LC-MS/MS method; assay type: ADME, organism-based; details: in vivo, read-out: beta t1/2 (converted)
[13] = AUClast in Swiss Albino mouse at 25 mg/kg, po by LC-MS/MS method; assay type: ADME, organism-based; parameters: dose 25 mg/kg, route oral, time 0 - last; details: in vivo
[14] = AUClast in Swiss Albino mouse at 50 mg/kg, po by LC-MS/MS method; assay type: ADME, organism-based; parameters: dose 50 mg/kg, time 0 - last, route oral; details: in vivo
[15] = Cmax in Swiss Albino mouse at 50 mg/kg, po by LC-MS/MS method; assay type: ADME, organism-based; parameters: dose 50 mg/kg, route oral; details: in vivo
[16] = Tmax in Swiss Albino mouse at 50 mg/kg, po by LC-MS/MS method; assay type: ADME, organism-based; details: in vivo

| metabolised at 0.5 h, 0.5 µM [1] [%] | metabolised at 0.5 h, 0.5 µM [2] [%] | SMILES | further results |
| --- | --- | --- | --- |
| 100 | 100 | c1ccc(Nc2nc(-c3ccccn3)cs2)nc1 |  |
| 99 | 99 | Cc1ccnc(Nc2nc(-c3ccccn3)cs2)c1 |  |
| 99 | 95 | Clc1ccc(Nc2nc(-c3cccnn3)cs2)nc1 |  |
| 10 | 62 | CCOc1ccc(-c2csc(Nc3ccc(Cl)cn3)n2)nc1 | clearance [3]: 91 mL/min/kg; AUC(0-t) [4]: 178 ng·h/mL; Vd [5]: 1.99 L/kg; AUC(0-inf) [6]: 377 ng·h/mL; Cmax [7]: 885 ng/mL; AUC(0-inf) [8]: 183 ng·h/mL; Cmax [9]: 167 ng/mL; bioavailability [10]: 8%; Tmax [11]: 15 min; half-life [12]: 28.8 min; AUC(0-t) [13]: 362 ng·h/mL |
| 100 | 100 | Cc1ccc(Nc2nc(-c3ccccn3)cs2)nc1 |  |
| 100 | 93 | Clc1ccc(Nc2nc(-c3ccccn3)c(Cl)s2)nc1 |  |
| 63 | 30 | FC(F)(F)c1ccc(-c2nc(Nc3ccc(Cl)cn3)sc2Cl)nc1 |  |
| 87 | 56 | CCOc1ccc(-c2nc(Nc3ccc(Cl)cn3)sc2Cl)nc1 |  |
| 99 | 71 | Clc1ccc(Nc2nc(-c3ncccn3)c(Cl)s2)nc1 |  |
| 100 | 100 | Clc1ccc(Nc2nc(-n3cccn3)cs2)nc1 |  |
| 100 | 92 | COc1ccc(-c2nc(Nc3ccc(Cl)cn3)sc2Cl)nc1 |  |
| 100 | 99 | Clc1ccc(Nc2nc(-c3ncccn3)cs2)nc1 |  |
| 99 | 70 | Clc1ccc(Nc2nc(-c3cccnn3)c(Cl)s2)nc1 |  |
| 100 | 100 | Cc1cccnc1Nc1nc(-c2ccccn2)cs1 |  |
| 100 | 100 | Cc1ccc(Nc2nc(-c3ccccn3)cs2)cc1C |  |

The remaining lines, values behind:

| SMILES | metabolised at 0.5 h, 0.5 µM [1] [%] | metabolised at 0.5 h, 0.5 µM [2] [%] | further results |
| --- | --- | --- | --- |
| Clc1ccc(Nc2nc(-c3cnccn3)c(Cl)s2)nc1 | 78 | 47 |  |
| c1ccc(-c2csc(Nc3ccc4c(c3)OCCO4)n2)nc1 | 100 | 99 |  |
| COc1ccc(Nc2nc(-c3cccnc3)cs2)cc1 | 96 | 96 |  |
| FC(F)(F)c1ccc(-c2csc(Nc3ccc(Cl)cn3)n2)nc1 | 98 | 63 |  |
| COc1ccc(Nc2nc(-c3ncccn3)cs2)cc1 | 81 | 99 |  |
| COc1ccnc(-c2csc(Nc3ccc(Cl)cn3)n2)c1 | 100 | 97 |  |
| COc1ccnc(-c2nc(Nc3ccc(Cl)cn3)sc2Cl)c1 | 100 | 90 |  |
| Clc1ccc(Nc2nc(-c3ccccn3)cs2)nc1 | 100 | 100 |  |
| COc1cccc(-c2csc(Nc3ccc(Cl)cn3)n2)n1 | 100 | 75 |  |
| COc1ccc(Nc2nc(-c3ccccn3)cs2)cc1OC | 100 | 100 |  |
| COc1ccc(Nc2nc(-c3ccncc3)cs2)cc1 | 98 | 83 |  |
| COc1ccc(Nc2nc(-c3ccccn3)cs2)nc1 | 99 | 100 |  |
| Cc1ccc(Nc2nc(-c3ccccn3)cs2)cc1 | 100 | 100 | AUC(0-t) [14]: 99.8 ng·h/mL; Cmax [15]: 108 ng/mL; Tmax [16]: 15 min |
| COc1ccc(-c2csc(Nc3ccc(Cl)cn3)n2)nc1 | 100 | 97 |  |
| Clc1ccc(Nc2nc(-c3cnccn3)cs2)nc1 | 99 | 99 |  |
| COc1ccc(Nc2nc(-c3ccccn3)cs2)cc1 | 100 | 100 |  |
| Cc1cccc(Nc2nc(-c3ccccn3)cs2)n1 | 100 | 100 |  |
| CN(C)c1ccc(Nc2nc(-c3ccccn3)cs2)cc1 | 99 | 98 |  |
